# From patent US20080242688A1, “Method 741” (ASTRAZENECA AB, priority 2007, published 2008)
# Where “and” joins values, the source holds several entries; their conditions need not be identical. Identical values can stand only once.
# Key:
# Type in all cases: in vivo
# [1] = Multiple dose PK/TK, dog; conditions: Beagle, dog, in vivo, po, 0295AD, capsules fed; for AUC / Cmax / Tmax: dog 6M
# From the text: (§1) This section provides a summary of the pharmacokinetic and metabolism properties of AZD0328 derived from in vivo studies. […] The derived PK/TK parameters from these studies are presented in Table 4 for single dose studies (DMR4, 0619LR, 20030191PCR, DMO16, DMB10, DMW12, 50190, 0190DD and 03.330/1), and are presented in Table 5 multiple dose PK/TK studies (DMR4, 0612AR, DMB15, 50190, 0190DD and 0295AD).
# [2] = Cardiovascular/ECG telemetry in dogs; conditions: in vivo, dog, low dose group, read-out: total Cmax
# Method: (§2) The cardiovascular effects of orally administered AZD0328 were assessed dogs implanted with telemetry transmitters (Table 3). The main purpose of the study was to evaluate effects on the QT interval of the ECG during a 7-days dosing period followed by 5 days of recovery, thus enabling assessment of any accumulation of effects and the recovery back to baseline. Systolic, diastolic and mean arterial blood pressure, heart rate, lead II ECG and core body temperature were recorded continuously. The PR, QRS and QT intervals of the ECG were measured, and the QT interval was corrected for changes in heart rate using the method of Van de Water (QTcV).
# [3] = test system: dogs; experiment: Cardiovascular/ECG telemetry in dogs; conditions: dog, oral
# Method: as §2
# [4] = Multiple dose PK/TK, rabbit; conditions: day 18; for AUC / Cmax / Tmax: female, New Zealand White, in vivo, sc
# From the text: as §1
# [5] = Single dose PK/TK, dog; conditions: for AUC / Cmax / Tmax: dog, in vivo, po
# From the text: as §1
# [6] = male, 8.65 mg/kg, dog 3M, 8.65 mg/kg (40 μmol/kg) split in two 6 h apart, day 7
# [7] = male, 8.65 mg/kg, dog 3M, 8.65 mg/kg (40 μmol/kg) split in two 6 h apart, day 35
# [8] = male, 17.3 mg/kg, dog 3M, 17.3 mg/kg (80 μmol/kg) split in two 6 h apart, day 7
# [9] = male, 17.3 mg/kg, dog 3M, 17.3 mg/kg (80 μmol/kg) split in two 6 h apart, day 35
# [10] = male, 26 mg/kg, 26.0 mg/kg (120 μmol/kg) split into 17.3 and 8.7 mg/kg 6 h apart, day 35
# [11] = male, 34.6 mg/kg, 34.6 mg/kg (160 μmol/kg) split in two 6 h apart, day 7
# [12] = rabbit 2F, DMB15, subcutaneous 1.15 mg/kg (3 μmol/kg)
# [13] = rabbit 3F, DMB15, subcutaneous 0.115 mg/kg (0.3 μmol/kg)
# [14] = rabbit 3F, DMB15, subcutaneous 0.269 mg/kg (0.7 μmol/kg)
# [15] = rabbit 3F, DMB15, subcutaneous 0.384 mg/kg (1 μmol/kg)
# [16] = rabbit 3F, DMB15, subcutaneous 3.84 mg/kg (10 μmol/kg)
# [17] = both sexes, 1.08 mg/kg, dog 2F+2M, 0190DD, oral 1.08 mg/kg (5 μmol/kg) split in two 6 h apart, capsules, fasted
# [18] = both sexes, 1.08 mg/kg, dog 2F+2M, 0190DD, oral 1.08 mg/kg (5 μmol/kg) split in two 6 h apart, capsules, fed
# [19] = both sexes, 1.08 mg/kg, dog 2F+2M, 0190DD, oral 1.08 mg/kg (5 μmol/kg) split in two 6 h apart, solution, fasted
compound,measurement,setting,value
"c1cnc2c(c1)C[C@@]1(CN3CCC1CC3)O2 [AZD0328, (R)-Spiro[1-azabicyclo[2.2.2]octane-3,2′(3′H)-furo[2,3-b]pyridine]]",Tmax at 7 day,"[1]; female, 34.6 mg/kg, dog 6F, 34.6 mg/kg (160 μmol/kg) split in two 6 h apart, day 7",0.5 to 6.5 h
same,AUC at 7 day,[1]; [6],868 ng·h/mL and 4 µM·h
same,Cmax at 7 day,[1]; [6],286 ng/mL and 1.32 µM
same,Tmax at 7 day,[1]; [6],0.5 to 7 h
same,AUC at 35 day,[1]; [7],1250 ng·h/mL and 5.79 µM·h
same,Cmax at 35 day,[1]; [7],373 ng/mL and 1.73 µM
same,Tmax at 35 day,[1]; [7],8.5 to 9 h
same,AUC at 7 day,[1]; [8],1930 ng·h/mL and 8.92 µM·h
same,Cmax at 7 day,[1]; [8],619 ng/mL and 2.86 µM
same,Tmax at 7 day,[1]; [8],6.5 to 7 h
same,AUC at 35 day,[1]; [9],1690 ng·h/mL and 7.85 µM·h
same,Cmax at 35 day,[1]; [9],608 ng/mL and 2.81 µM
same,Tmax at 35 day,[1]; [9],1 to 9 h
same,AUC,[1]; [10],4530 ng·h/mL and 20.9 µM·h
same,Cmax,[1]; [10],8160 nM
same,Tmax,[1]; [10],0.5 to 2 h
same,AUC,[1]; [11],5260 ng·h/mL and 24.3 µM·h
same,Cmax,[1]; [11],1910 ng/mL and 8.82 µM
same,Tmax,[1]; [11],0.5 to 7 h
same,Cmax,"[2]; oral, day 7 (lowest)",800 nM
same,Cmax,"[2]; po, day 4",1500 nM
same,single dose followed by frequent vomiting,[3],17.3 mg/kg and 34.6 mg/kg
same,AUC,[4]; [12],636 ng·h/mL to 846 ng·h/mL and 2.9 µM·h to 3.9 µM·h
same,Cmax,[4]; [12],224 ng/mL to 296 ng/mL and 1.04 µM to 1.37 µM
same,Tmax,[4]; [12],0.3 to 1 h
same,AUC,[4]; [13],50.2 ng·h/mL and 0.205 µM·h
same,Cmax,[4]; [13],24.7 ng/mL and 111 nM
same,Tmax,[4]; [13],0.317 to 0.97 h
same,AUC,[4]; [14],0.872 µM·h
same,Cmax,[4]; [14],138 ng/mL and 583 nM
same,Tmax,[4]; [14],0.217 to 0.483 h
same,AUC,[4]; [15],232 ng·h/mL and 1.01 µM·h
same,Cmax,[4]; [15],78.1 ng/mL and 317 nM
same,Tmax,[4]; [15],0.25 to 2.02 h
same,AUC,[4]; [16],2510 ng·h/mL and 11.6 µM·h
same,Cmax,[4]; [16],677 ng/mL and 3.13 µM
same,Tmax,[4]; [16],0.483 to 2.18 h
same,AUC/dose,[4]; [12],0.212-0.282
same,AUC/dose,[4]; [13],0.148 ± 0.038
same,AUC/dose,[4]; [14],0.270 ± 0.106
same,AUC/dose,[4]; [16],0.251 ± 0.129
same,AUC,[5]; [17],68.1 ng·h/mL and 0.315 µM·h
same,Cmax,[5]; [17],19.2 ng/mL and 89 nM
same,Tmax,[5]; [17],1 to 3 h
same,AUC,[5]; [18],177 ng·h/mL and 0.818 µM·h
same,Cmax,[5]; [18],26.9 ng/mL and 124 nM
same,Tmax,[5]; [18],0.5 to 6 h
same,AUC,[5]; [19],104 ng·h/mL and 0.483 µM·h
same,Cmax,[5]; [19],33.1 ng/mL and 153 nM
same,Tmax,[5]; [19],0.5 h
same,F,"[5]; dog 4M, 0279ZD, single oral 17.3 mg/kg (80 μmol/kg)",0.146 ± 0.043%
same,F,"[5]; dog 4M, 0279ZD, single oral 34.6 mg/kg (160 μmol/kg)",0.239 ± 0.099%
same,AUC,"[5]; male, 17.3 mg/kg, dog 4M, 0279ZD, single oral 17.3 mg/kg (80 μmol/kg)",2530 ng·h/mL and 11.7 µM·h
same,AUC,"[5]; male, 34.6 mg/kg, dog 4M, 0279ZD, single oral 34.6 mg/kg (160 μmol/kg)",8280 ng·h/mL and 38.3 µM·h
